Common to all, as to assay: NCI anticancer screen, dose series, 48 h
The subject of assay [1] is 786-0 renal.
Assay [2] relates to HCT-15 colon.
Assay [3] deals with HL-60(TB) leukemia.
The test system of assay [4] is HOP-92 NSCLC.
In assay [5] the test system is MALME-3M melanoma.
Assay [6] deals with NCI-H522 lung.
Assay [7] has as its system OVCAR-8 ovarian.
Assay [8] deals with RPMI-8226 leukemia.
In assay [9] the test system is SF-268 CNS.
For assay [10], the system named is SF-295 CNS.
Assay [11] has as its system SF-539 CNS.
The test system of assay [12] is TK-10 renal.

“And” between values parts separate entries of the source, which are not always exact repeats. Equal values may be shown once.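 All cell lines were grown in 96-well plates and treated with compound for 48 hours. GI50 is the concentration that inhibits growth by half. The concentration for full growth arrest is given as TGI.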 Where a SMILES comes first, the peptide text is derived from it. The star is where a group is joined. Fmoc = O=C(OCC1c2ccccc2-c2ccccc21)*; OtBu = CC(C)(C)O*

In the case of `CSc1nc(-c2ccc(Cl)cc2)c(C#N)c(=O)n1C1OC(COC(C)=O)C(OC(C)=O)C(OC(C)=O)C1OC(C)=O` (centres undefined), the TGI in [1] was above 100 µM; in assay [2], above 100 µM; in assay [3] it was above 100 µM; in assay [4], 32 µM and 82.7 µM; in assay [5], above 100 µM; in assay [6], 29.2 µM and > 100 µM. The TGI is above 100 µM in assay [7]; above 100 µM in assay [8]; 55.2 µM and > 100 µM in [9]; 39 µM and > 100 µM in assay [10]; 31.6 µM and > 100 µM in assay [11]; above 100 µM in assay [12]. Besides, the GI50 in [4] is 10.4 µM and 4.43 µM; in assay [5], 30.7 µM and 77.8 µM; in assay [6], 12.1 µM and > 100 µM; in [8] it was 34.6 µM and > 100 µM; in assay [9], 12.4 µM and > 100 µM; in assay [10], 14.8 µM and > 100 µM. Moreover, in assay [11], the GI50 is 15.2 µM and > 100 µM.
As for `Cc1ccc(C)n1-c1ccccc1C1C=Cn2c(=O)nnc3c(OC(C)C)c(OC(C)C)c(O)c1c32` (centres undefined), the TGI is 65.7 µM in [1]; 60.4 µM in [2]; 59.6 µM in [3]; above 100 µM in [4]; 76.5 µM in assay [5]; 49.6 µM in assay [6]. The TGI in [7] is above 100 µM; in assay [8], 42.4 µM; in assay [9], above 100 µM; in assay [10], above 100 µM; in assay [11], above 100 µM; in assay [12], above 100 µM.
With `COc1ccc(C(CC2(c3ccc(OC)cc3)SCCCS2)NC(C)=O)cc1` (centres undefined), the TGI in [1], in assay [2], in [3], in assay [4], in assay [5] and in assay [6] was above 100 µM throughout. Further, the TGI in assay [7], in assay [8], in assay [9], in assay [10], in [11] and in [12] was above 100 µM throughout.
`CC(/C=C/C(=O)NO)=C\C(C)C(=O)c1ccc(N(C)C)cc1` (centres undefined): the TGI is 6.42 µM in [1]; 21.4 µM in assay [2]; 2.53 µM in assay [3]; 0.388 µM in assay [4]; 0.0239 µM in assay [5]; below 0.0129 µM in assay [6]. For the same compound, the TGI in [7] amounted to 41.6 µM; in assay [8], 74.1 µM; in assay [9] it was 0.195 µM; in [10], 0.454 µM; in assay [11], 2.04 µM; in assay [12], 0.107 µM.
On to `CC(C)C(NC(=O)OCC1c2ccccc2-c2ccccc21)C(=O)NC(CCC(=O)OC(C)(C)C)C(=O)OC(C)(C)C` (centres undefined) (Fmoc-Val-Glu(OtBu)-OtBu; configuration not given here), for which the TGI in assay [1], in assay [2], in assay [3], in assay [4], in [5] and in assay [6] was above 100 µM throughout. For the same compound, the TGI is above 100 µM in assay [7]; above 100 µM in assay [8]; above 100 µM in assay [9]; above 89.1 µM in assay [10]; above 92 µM in assay [11]; above 100 µM in assay [12].
Regarding `CC(C)(O)C(O)COc1c2c(cc3oc(=O)ccc13)OCO2` (centres undefined), the TGI in [1], in [2], in [3], in assay [4], in assay [5] and in assay [6] was above 100 µM each time. Moreover, the TGI in [7], in [8], in assay [9], in assay [10], in [11] and in assay [12] was above 100 µM each time.
As to `Cc1cc(S(=O)(=O)NC2=NCc3nc4ccccc4n32)c(S)cc1Cl`, the TGI in [1] is 47.8 µM; in assay [2], 59.1 µM; in [3], 51.8 µM; in assay [4], 47.2 µM; in [5] it was 56.2 µM; in [6], above 100 µM. In addition, the TGI in [7] is above 100 µM; in assay [8] it was 47.6 µM; in assay [9], above 100 µM; in [10], 37.6 µM; in assay [11], 42.7 µM; in [12] it was above 100 µM.
On to `CCOC(=O)Cc1csc(NC(NC(=O)OCC)(C(=O)OCC)C(F)(F)F)n1` (centres undefined), for which the TGI in [1], in assay [2], in assay [3], in assay [4], in [5] and in assay [6] was above 100 µM throughout. The TGI in assay [7], in assay [8], in assay [9], in assay [10], in [11] and in assay [12] was above 100 µM throughout.
Consider `COc1cc(OC)cc(OCc2nc3cc(C(F)(F)F)ccc3nc2-c2ccccc2)c1`, for which the TGI in [1], in assay [2], in assay [3], in assay [4], in assay [5] and in assay [6] was above 100 µM in each case. Moreover, the TGI in assay [7], in assay [8], in [9], in assay [10], in assay [11] and in [12] was above 100 µM throughout.
Consider `Cc1ccc(CC(Cc2ccccc2C)C(=O)O)c(C(=O)O)c1` (centres undefined), for which the TGI in assay [1], in assay [2], in [3], in [4], in assay [5] and in assay [6] was above 100 µM each time. The TGI in assay [7], in assay [8], in assay [9], in assay [10], in assay [11] and in [12] was above 100 µM throughout.
Take `CCOC(=O)c1nc2cc(C(F)(F)F)ccc2nc1Oc1ccc(C#N)cc1`: the TGI in assay [1], in assay [2], in [3], in [4], in assay [5] and in [6] was above 100 µM in each case. The TGI in assay [7], in assay [8], in assay [9], in [10], in assay [11] and in assay [12] was above 100 µM throughout.
Turning to `C=C(Cl)C(Cl)(CBr)CCC(Br)C(C)(C)Br` (centres undefined), the TGI in assay [1] came to 2.59 µM; in assay [2] it was 9.35 µM; in assay [3] it was 6.02 µM; in [4] it was 4.38 µM; in [5], 29.6 µM; in assay [6], 19.3 µM. In addition, the TGI came out at 13.9 µM in assay [7]; 2.01 µM in assay [8]; 10.7 µM in [9]; 3.78 µM in assay [10]; 4.01 µM in assay [11]; 3.12 µM in [12].
Turning to `NC1N=C(c2ccc(Cl)cc2)C2=C(N1)c1ccccc1CC2` (centres undefined), the TGI was above 73.1 µM in assay [1]; above 100 µM in [2]; 10.6 µM in assay [3]; above 100 µM in assay [4]; above 100 µM in assay [5]; 36.2 µM in assay [6]. The TGI in assay [7] is above 100 µM; in [8] it was 12.2 µM; in [9] it was above 100 µM; in [10], above 100 µM; in assay [11], above 100 µM; in [12], above 100 µM.
For the compound `O=C1NC2c3c(I)sc(I)c3C(=O)C2O1` (centres undefined), the TGI in [1] is 20.9 µM; in assay [2] it was 3.63 µM; in assay [3], above 31.6 µM; in assay [4], 10.1 µM; in [5], 6.88 µM; in assay [6] it was 3.16 µM. In addition, the TGI in [7] came to 9.27 µM; in assay [8] it was 34.1 µM; in [9] it was 21.5 µM; in assay [10] it was 30.5 µM; in assay [11], 4.92 µM; in [12], 27.3 µM.
As to `Cc1cc(S(=O)(=O)Nc2n[nH]c(-c3ccc(Cl)cc3)n2)c(SSc2cc(Cl)c(C)cc2S(=O)(=O)Nc2n[nH]c(-c3ccc(Cl)cc3)n2)cc1Cl`, the TGI was above 100 µM in assay [1]; 69.1 µM in assay [2]; 48.5 µM in [3]; 76.8 µM in assay [4]; above 100 µM in assay [5]; 83.9 µM in assay [6]. Further, the TGI in assay [7], in assay [8], in assay [9], in assay [10], in assay [11] and in assay [12] was above 100 µM throughout.
Regarding `CCOC1CN=C(Nc2cccc3ccccc23)S1` (centres undefined), the TGI in assay [1], in assay [2], in assay [3], in assay [4], in assay [5] and in assay [6] was above 10 µM each time. Further, the TGI in assay [7], in assay [8], in assay [9], in assay [10], in assay [11] and in assay [12] was above 10 µM in each case.

The record behind these values is PubChem BioAssay (NCI).
